Legend:
[1] = test system: normal NK cells expanded with K562-aAPC; test: percent inhibition of viability; higher = more inhibition; details: 72 h, IL-2 2.5 ng/mL
Protocol: (§1)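 Drug sensitivity and resistance testing on K562-aAPC-expanded normal NK cells: 5 concentrations (10-fold steps over a 10,000-fold range), 72 h at 37 °C, viability by CellTiter-Glo normalised to DMSO and benzethonium chloride controls; DSS from the fitted curve.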

[2] = test system: DERL-7 (IL-2 2.5 ng/mL); test: as above; details: 72 h
[3] = test system: IMC-1 (IL-2 20 ng/mL); test: as above; details: 72 h
[4] = test system: KAI3 (IL-2 2.5 ng/mL); test: as above; details: 72 h
[5] = test system: KHYG-1 (IL-2 2.5 ng/mL); test: as above; details: 72 h
[6] = test system: NK-92 (IL-2 2.5 ng/mL); test: as above; details: 72 h
[7] = test system: NK-YS (IL-2 2.5 ng/mL); test: as above; details: 72 h
[8] = test system: NKL (IL-2 2.5 ng/mL); test: as above; details: 72 h
[9] = test system: SNK-6 (IL-2 2.5 ng/mL); test: as above; details: 72 h
[10] = test system: YT (IL-2 2.5 ng/mL); test: as above; details: 72 h
[11] = test system: normal primary NK cells, pool 1 (3 donors) (IL-2 2.5 ng/mL); test: as above; details: 72 h
[12] = test system: normal primary NK cells, pool 1 (3 donors), resting (IL-2 0 ng/mL); test: as above; details: 72 h
[13] = test system: normal primary NK cells, pool 2 (3 donors) (IL-2 2.5 ng/mL); test: as above; details: 72 h
[14] = test system: normal primary NK cells, pool 3 (3 donors) (IL-2 2.5 ng/mL); test: as above; details: 72 h
[15] = test system: normal NK cells expanded with K562-aAPC; test: drug sensitivity score (DSS) (DSS units); higher = more sensitive; extreme values may be limits of the assay; details: 72 h; IL-2 2.5 ng/mL
Protocol: as §1

[16] = test system: DERL-7 (IL-2 2.5 ng/mL); test: as above; details: 72 h
[17] = test system: IMC-1 (IL-2 20 ng/mL); test: as above; details: 72 h
[18] = test system: KAI3 (IL-2 2.5 ng/mL); test: as above; details: 72 h
[19] = test system: KHYG-1 (IL-2 2.5 ng/mL); test: as above; details: 72 h
[20] = test system: NK-92 (IL-2 2.5 ng/mL); test: as above; details: 72 h
[21] = test system: NK-YS (IL-2 2.5 ng/mL); test: as above; details: 72 h
[22] = test system: NKL (IL-2 2.5 ng/mL); test: as above; details: 72 h
[23] = test system: SNK-6 (IL-2 2.5 ng/mL); test: as above; details: 72 h
[24] = test system: YT (IL-2 2.5 ng/mL); test: as above; details: 72 h
[25] = test system: normal primary NK cells, pool 1 (3 donors) (IL-2 2.5 ng/mL); test: as above; details: 72 h
[26] = test system: normal primary NK cells, pool 1 (3 donors), resting (IL-2 0 ng/mL); test: as above; details: 72 h
[27] = test system: normal primary NK cells, pool 2 (3 donors) (IL-2 2.5 ng/mL); test: as above; details: 72 h
[28] = test system: normal primary NK cells, pool 3 (3 donors) (IL-2 2.5 ng/mL); test: as above; details: 72 h

## NC(=O)NO [Hydroxyurea] (max concentration tested 100000 nM)
[1]; 10 nM
  percent inhibition of viability: 2.1%
[1]; 100 nM
  percent inhibition of viability: -5.76%
[1]; 1000 nM
  percent inhibition of viability: -2.1%
[1]; 10000 nM
  percent inhibition of viability: 8.98%
[1]; 100000 nM
  percent inhibition of viability: 49.1%
[2]; 10 nM
  percent inhibition of viability: 2.03%
[2]; 100 nM
  percent inhibition of viability: -0.08%
[2]; 1000 nM
  percent inhibition of viability: 8.03%
[2]; 10000 nM
  percent inhibition of viability: -3.4%
[2]; 100000 nM
  percent inhibition of viability: 12.6%
[3]; 10 nM
  percent inhibition of viability: -6.14%
[3]; 100 nM
  percent inhibition of viability: -2.56%
[3]; 1000 nM
  percent inhibition of viability: -2.39%
[3]; 10000 nM
  percent inhibition of viability: -0.1%
[3]; 100000 nM
  percent inhibition of viability: 9.95%
[4]; 10 nM
  percent inhibition of viability: 24.5%
[4]; 100 nM
  percent inhibition of viability: 13.1%
[4]; 1000 nM
  percent inhibition of viability: 12.7%
[4]; 10000 nM
  percent inhibition of viability: 20.9%
[4]; 100000 nM
  percent inhibition of viability: 51.8%
[5]; 10 nM
  percent inhibition of viability: -10.9%
[5]; 100 nM
  percent inhibition of viability: -7.34%
[5]; 1000 nM
  percent inhibition of viability: -3.16%
[5]; 10000 nM
  percent inhibition of viability: 8.85%
[5]; 100000 nM
  percent inhibition of viability: 17.1%
[6]; 10 nM
  percent inhibition of viability: 6.26%
[6]; 100 nM
  percent inhibition of viability: 6.63%
[6]; 1000 nM
  percent inhibition of viability: 2.07%
[6]; 10000 nM
  percent inhibition of viability: 31.3%
[6]; 100000 nM
  percent inhibition of viability: 48.5%
[7]; 10 nM
  percent inhibition of viability: -0.41%
[7]; 100 nM
  percent inhibition of viability: -2.69%
[7]; 1000 nM
  percent inhibition of viability: -1.46%
[7]; 10000 nM
  percent inhibition of viability: 3.98%
[7]; 100000 nM
  percent inhibition of viability: 29.3%
[8]; 10 nM
  percent inhibition of viability: 4.79%
[8]; 100 nM
  percent inhibition of viability: -0.36%
[8]; 1000 nM
  percent inhibition of viability: 15%
[8]; 10000 nM
  percent inhibition of viability: 24.1%
[8]; 100000 nM
  percent inhibition of viability: 48.3%
[9]; 10 nM
  percent inhibition of viability: 15.2%
[9]; 100 nM
  percent inhibition of viability: -7.82%
[9]; 1000 nM
  percent inhibition of viability: -13.1%
[9]; 10000 nM
  percent inhibition of viability: -12.9%
[9]; 100000 nM
  percent inhibition of viability: 1.36%
[10]; 10 nM
  percent inhibition of viability: -10.8%
[10]; 100 nM
  percent inhibition of viability: -9.74%
[10]; 1000 nM
  percent inhibition of viability: -3.92%
[10]; 10000 nM
  percent inhibition of viability: 0.46%
[10]; 100000 nM
  percent inhibition of viability: 14.2%
[11]; 10 nM
  percent inhibition of viability: -2.1%
[11]; 100 nM
  percent inhibition of viability: 5.26%
[11]; 1000 nM
  percent inhibition of viability: 3.61%
[11]; 10000 nM
  percent inhibition of viability: -8.28%
[11]; 100000 nM
  percent inhibition of viability: 4.04%
[12]; 10 nM
  percent inhibition of viability: 15.8%
[12]; 100 nM
  percent inhibition of viability: 15.8%
[12]; 1000 nM
  percent inhibition of viability: 15.4%
[12]; 10000 nM
  percent inhibition of viability: 15.8%
[12]; 100000 nM
  percent inhibition of viability: 15.6%
[13]; 10 nM
  percent inhibition of viability: 1.52%
[13]; 100 nM
  percent inhibition of viability: 0.13%
[13]; 1000 nM
  percent inhibition of viability: 10.8%
[13]; 10000 nM
  percent inhibition of viability: 4.35%
[13]; 100000 nM
  percent inhibition of viability: 13.4%
[14]; 10 nM
  percent inhibition of viability: 6.75%
[14]; 100 nM
  percent inhibition of viability: 1.29%
[14]; 1000 nM
  percent inhibition of viability: 8.4%
[14]; 10000 nM
  percent inhibition of viability: -5.82%
[14]; 100000 nM
  percent inhibition of viability: 7.32%
[15]
  drug sensitivity score: 4.07
[16]
  drug sensitivity score: 0.03
[17]
  drug sensitivity score: 0
[18]
  drug sensitivity score: 8.49
[19]
  drug sensitivity score: 1.16
[20]
  drug sensitivity score: 6.31
[21]
  drug sensitivity score: 1.89
[22]
  drug sensitivity score: 6.01
[23]
  drug sensitivity score: 0
[24]
  drug sensitivity score: 0.2
[25]
  drug sensitivity score: 0
[26]
  drug sensitivity score: 4.95
[27]
  drug sensitivity score: 0.1
[28]
  drug sensitivity score: 0

From the supplement of paper PMC5908809
